Experiments:
[1] = tested on: SMI-32-positive MNs in spinal cord organotypic cultures; assay: Spinal cord organotypic cultures (SCOC) under chronic excitotoxicity (THA); type: cell-based, Sprague–Dawley rats; conditions: THA 100 µM, 28 DIV; tested at 0.03, 0.3, 3, 30 µM
Method: SCOCs from lumbar sections of 8-day-old Sprague–Dawley rats were prepared as previously described [39]. Briefly, the spinal cord was collected and cut into 350 μm thick transverse sections with a McIlwain Tissue Chopper. Four lumbar sections were transferred onto Millicell-CM nets (0.4 μm, PICM03050, Millipore) in medium (50% (v/v) minimal essential medium (MEM, M5775, Sigma), 2 mM glutamine, 25 mM HEPES, 25% (v/v) Hank’s Balanced Salt Solution (HBSS^−/−;14175, Gibco; UK) supplemented with 25.6 mg/mL glucose, and 25% (v/v) heat-inactivated horse serum (26050-088, Gibco; New Zealand), pH = 7.2). Cultures were maintained at 37 °C in a 5% CO2 humidified cabin and left to stabilize. After 7 days in vitro (DIV), DL-threo-β-hydroxyaspartic acid (THA; 100 μM: H2775, Sigma Aldrich, St. Louis, MI, USA) was added to induce chronic excitotoxicity [28]. […] In vitro experiments were performed in three independent cultures, with at least 12 different SCOCs for each experimental condition.
Slices were maintained for 28 DIV and then fixed with 4% PFA. […] MN survival was assessed by counting all SMI-32-positive neurons in each spinal cord using the Cell Counter plugin of ImageJ software.

[2] = tested on: microglia and astrocytes in ventral horn after rhizotomy; assay: Glial reactivity after L4-L5 rhizotomy (Iba1, GFAP immunolabeling); type: in vivo, female mice (B6SJL); conditions: 5 mg/kg bid i.p., 42 dpi; for GFAP integrated density ± SEM (astroglial reactivity): untreated 19 × 10^4; for Iba1 integrated density ± SEM (microglial reactivity): untreated 26 × 10^4
Method: Surgeries were performed on three-month-old mice under anesthesia with ketamine-xylazine (100–10 mg/kg i.p.) as previously described. Briefly, the L4-L5 spinal roots were exposed by a small laminectomy on the right side. Afterwards, roots were cut at the exit from the intervertebral foramina, and the root stumps were separated. Mice were cared for until recovery in a warm environment. Analgesia was provided with buprenorphine (0.1 mg/kg) for the next 48 h post-surgery.
(§1) The compounds were dissolved in 0.5% hydroxypropyl-methylcellulose (HPMC; H7509, Sigma-Aldrich) in distilled water and were administered by intraperitoneal (i.p.) route twice daily (bid) in a volume of 10 mL/kg. Administrations were given from 30 min after rhizotomy surgery until 42 days post-injury (dpi), the end of the study; in the SOD1^G93A study, treatments were given from 8 to 16 weeks of age (see Figure 6).
(§2) For glial cells immunofluorescence, other lumbar spinal cord sections were blocked with 10% normal donkey serum and incubated overnight with primary antibodies rabbit anti-Iba1 (1:500; 019–19741, Wako) and rat anti-GFAP (1:500; 13-0300, Invitrogen) to label microglia and astroglia, respectively. After several washes, sections were incubated with secondary antibodies Alexa Fluor 488-donkey anti-rat (1:500; A-21208, Invitrogen) or Alexa Fluor 594 donkey anti-rabbit (1:500; A21207, Invitrogen). Finally, sides were mounted with Fluoromount-G. To quantify glial cell reactivity, images of the ventral horn were acquired with an epifluorescence microscope (Nikon Eclipse Ni, Japan) using the same conditions for each analyzed marker. After defining a threshold for background correction, the integrated density of GFAP or Iba1 labeling was measured using ImageJ software.

[3] = tested on: SOD1^G93A mice; assay: Rotarod test in SOD1G93A mice; type: in vivo, SOD1^G93A male mice; conditions: 5 mg/kg i.p.; at 15 weeks of age
Method: as §1
A rotarod test was performed to evaluate motor coordination and strength. The time that each animal remained on the rotating rod at a speed of 14 rpm was measured for five trials per mouse, and the longest time until falling was recorded; 180 s was chosen as the cut-off time. The test was performed weekly from 8 to 16 weeks of age in SOD1^G93A and WT mice, and disease onset was determined as the first week when each mouse was unable to keep walking for 180 s on the rod.

[4] = tested on: NMJs of hindlimb muscle in SOD1^G93A mice; assay: Neuromuscular junction innervation in SOD1G93A mice; type: in vivo, SOD1^G93A male mice; conditions: 5 mg/kg i.p.; 16 weeks of age
Method: as §1
For neuromuscular junction (NMJ) labeling, 50 µm thick longitudinal sections of TA muscle were serially cut. Sections were blocked with 5% normal donkey serum and incubated with primary antibodies rabbit anti-synaptophysin (1:500; Ab32127, Abcam, Cambridge, UK) and chicken anti-neurofilament 200 (NF200, 1:1000; AB5539, Millipore, Burlington, MS, USA) 48 h at 4 °C. After washes, sections were incubated overnight with secondary antibody Alexa Fluor 594-donkey anti-rabbit and anti-chicken (1:200; A11042-A21207, Invitrogen, USA) and Alexa 488 conjugated α-bungarotoxin (1:500; B13422, Life Technologies, Carlsbad, CA USA). Confocal images were captured (LSM 700 Axio Observer, Carl Zeiss, Jena, Germany, 40xOil/z0.5), and the maximum projection images generated from 1.3 µm z projections. The proportion of innervated NMJs was calculated by classifying each endplate as occupied (when presynaptic terminals overlie the endplate) or vacant (no presynaptic label in contact with the endplate). At least 60 endplates were analyzed per muscle.

[5] = tested on: microglia and astrocytes in ventral horn of SOD1^G93A mice; assay: Glial reactivity in SOD1G93A mice (Iba1, GFAP); type: in vivo, SOD1^G93A male mice; conditions: 5 mg/kg i.p.; 16 weeks of age
Method: as §1, §2

[6] = Body weight in SOD1G93A mice; type: in vivo, SOD1^G93A male mice; conditions: 5 mg/kg i.p., 8 to 16 weeks of age
Method: as §1

Row | SMILES | Number of SMI-32-positive MNs vs THA condition [1] | GFAP integrated density ± SEM (astroglial reactivity) [2] | Iba1 integrated density ± SEM (microglial reactivity) [2] | Rotarod performance vs vehicle [3] | Proportion of innervated endplates (NMJ) vs vehicle [4] | Astrocyte activation (GFAP) [5] | Microglial activation (Iba1) [5] | Body weight vs vehicle group [6]
1 | C[C@@H]1OC2(CCN(Cc3ccc(F)cc3)CC2)CN(C)C1=O [EST79232] | significantly more SMI-32-positive neurons at three concentrations tested | 4 × 10^4 ± 0.4 × 10^4 | 13 × 10^4 ± 2 × 10^4 | significant improvement | tendency to preserve NMJ innervation, although differences did not reach statistical significance | significant decrease in astrocyte activation | did not reduce microglial activation | did not cause differences in body weight
2 | CCN1CC2(CCN(Cc3ccc(C#N)c(F)c3)CC2)O[C@@H](C)C1=O [EST79376] | significantly preserved MNs | 15 × 10^4 ± 2.7 × 10^4 | 25 × 10^4 ± 4 × 10^4 | – | tendency to preserve NMJ innervation, although differences did not reach statistical significance | significant decrease in astrocyte activation | did not reduce microglial activation | –

Source: publication PMC9223397 (International Journal of Molecular Sciences, 2022)
